# Laboratory results as given in US12150995B2, “IRAK degraders and uses thereof” (Kymera Therapeutics, Inc., priority 2020, dated 2024).
# Molecular target: T1, IRAK4 (Homo sapiens, UniProt Q9NWZ3)
# T1 construct: endogenous in cells; host or cells: OCI-LY10
# T1 sequence (Q9NWZ3 1-460): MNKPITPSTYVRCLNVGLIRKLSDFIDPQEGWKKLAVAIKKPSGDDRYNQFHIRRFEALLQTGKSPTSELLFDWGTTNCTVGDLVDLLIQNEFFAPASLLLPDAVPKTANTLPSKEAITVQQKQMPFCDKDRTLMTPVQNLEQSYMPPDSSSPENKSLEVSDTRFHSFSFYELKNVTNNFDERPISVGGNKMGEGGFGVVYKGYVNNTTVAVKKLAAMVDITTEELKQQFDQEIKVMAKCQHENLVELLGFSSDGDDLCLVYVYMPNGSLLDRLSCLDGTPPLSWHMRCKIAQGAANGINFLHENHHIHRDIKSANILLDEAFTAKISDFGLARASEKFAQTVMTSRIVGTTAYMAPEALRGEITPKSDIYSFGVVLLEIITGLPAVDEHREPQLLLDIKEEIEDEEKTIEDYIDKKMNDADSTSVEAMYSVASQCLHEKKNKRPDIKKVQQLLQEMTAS
# Assay: IRAK4 MSD Degradation in OCI-LY10
# Type: cell-based
# Conditions: OCI-LY10 cells, Meso Scale Discovery, incubated 4 to 24 hours
# Procedure, shortened: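 IRAK4 degradation was quantified by Meso Scale electrochemiluminescence (anti-IRAK4 capture and detection antibodies) in lysates of treated OCI-LY10 cells. Compounds were dosed at 8 concentrations (1:3 dilutions, top 1 to 10 μM) for 4 to 24 h; DC50 derived by three-parameter logistic fitting.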
row,DC50 [nM],SMILES
1,10 to 50,Cc1cc2nn([C@H]3CC[C@H](CN4C5CC4CN(c4cccc6c4n(C)c(=O)n6C4CCC(=O)NC4=O)C5)CC3)cc2cc1NC(=O)c1cccc(C(F)(F)F)n1 (stereo partly shown) [I-396]
2,10 to 50,COc1cc2nn([C@H]3CC[C@H](CN4CCC(CCNc5cccc6c5C(=O)N(C5CCC(=O)NC5=O)C6=O)CC4)CC3)cc2cc1NC(=O)c1cccc(C(C)(F)F)n1 (stereo partly shown) [I-8]
3,100 to 200,CN(C[C@H]1CC[C@H](n2cc3cc(NC(=O)c4cccc(C(F)(F)F)n4)ncc3n2)CC1)C1CCN(c2ccc3c(N4CCC(=O)NC4=O)cncc3c2)CC1 [I-317]
4,< 10,Cn1c(=O)n(C2CCC(=O)NC2=O)c2cccc(C3CCN(C[C@H]4CC[C@H](n5cc6cc(NC(=O)c7cccc(C(F)(F)F)n7)cc(F)c6n5)CC4)CC3)c21 (stereo partly shown) [I-240]
5,> 200,"N#Cc1cnc2c(C(=O)Nc3ccc4nn([C@H]5CC[C@H](CN6CCC(c7ccc8c(N9CCC(=O)NC9=O)cncc8c7)CC6)CC5)cc4c3)cnn2c1 [I-170, 6-Cyano-N-[2-[4-[[4-[4-(2,4-dioxohexahydropyrimidin-1-yl)-7-isoquinolyl]-1-piperidyl]methyl]cyclohexyl]indazol-5-yl]pyrazolo[1,5-a]pyrimidine-3-carboxamide]"
6,10 to 50,O=C1CCN(c2cncc3c(N4CCN(C[C@H]5CC[C@H](n6cc7cc(NC(=O)c8cccc(C(F)(F)F)n8)c(Cl)cc7n6)CC5)CC4)cccc23)C(=O)N1 [I-358]
7,> 200,"CN(CCn1cc2cc(NC(=O)c3cnn4cccnc34)c(F)cc2n1)C1CCN(c2cccc3c2n(C)c(=O)n3C2CCC(=O)NC2=O)CC1 (stereo not shown) [I-22, N-[2-[2-[[1-[1-(2,6-dioxo-3-piperidyl)-3-methyl-2-oxo-benzimidazol-4-yl]-4-piperidyl]-methyl-amino]ethyl]-6-fluoro-indazol-5-yl]pyrazolo[1,5-a] pyrimidine-3-carboxamide]"
8,< 10,COc1cc2nn([C@H]3CC[C@H](CN(C)C4CCN(c5cccc6c5n(C)c(=O)n6C5CCC(=O)NC5=O)CC4)CC3)cc2cc1NC(=O)c1cncc(Cl)c1 (stereo partly shown) [I-80]
9,> 200,O=C1CCN(c2cncc3c(C4CCN(C[C@H]5CC[C@H](c6nc7ccc(NC(=O)c8cccc(C(F)(F)F)n8)cc7s6)CC5)CC4)cccc23)C(=O)N1 [I-201]
10,< 10,COc1cc2nn([C@H]3CC[C@H](CN4CCC(c5c(C)ccc6c5n(C)c(=O)n6C5CCC(=O)NC5=O)CC4)CC3)cc2cc1NC(=O)c1cncc(C(F)(F)F)c1 (stereo partly shown) [I-108]
11,> 200,Cn1c(=O)n(C2CCC(=O)NC2=O)c2ccc(C3CCN(C[C@H]4CC[C@H](n5cc6cc(NC(=O)c7cccc(C(F)(F)F)n7)ccc6n5)CC4)CC3)c(Cl)c21 (stereo partly shown) [I-180]
12,> 200,CC(C)Nc1cc(-n2ccc3cc(C(F)(F)F)cnc32)ncc1C(=O)N[C@H]1CC[C@H](CN2CCN(c3ccc4c(c3)n(C)c(=O)n4C3CCC(=O)NC3=O)CC2)CC1 (stereo partly shown) [I-374]
13,10 to 50,O=C1CCN(c2cncc3c(C4CCN(C[C@H]5CC[C@H](n6cc7cc(NC(=O)c8cccc(C(F)(F)F)n8)ccc7n6)CC5)CC4)cccc23)C(=O)N1 [I-68]
14,> 200,Cn1c(=O)n(C2CCC(=O)NC2=O)c2cccc(C3CCN(C[C@H]4CC[C@H](n5cc6cc(NC(=O)c7cncc(C#N)c7)c(N7C[C@H]8C[C@@H]7CO8)cc6n5)CC4)CC3)c21 (stereo partly shown) [I-212]
15,< 10,COc1cc2nn([C@H]3CC[C@H](CN(C)C4CCN(c5ccc6c(N7CCC(=O)NC7=O)cncc6c5)CC4)CC3)cc2cc1NC(=O)c1cccc(C(F)(F)F)n1 [I-320]
16,100 to 200,Cc1cccc(C(=O)Nc2cc3sc([C@H]4CC[C@H](CN5CCO[C@H](CCCNc6cccc7c6C(=O)N(C6CCC(=O)NC6=O)C7=O)C5)CC4)nc3cc2C(C)(C)O)n1 (stereo partly shown) [I-477]
17,100 to 200,Cc1cccc(C(=O)Nc2cc3sc([C@H]4CC[C@H](CN5C[C@@H]6C[C@H]5CN6CCNc5cccc6c5C(=O)N(C5CCC(=O)NC5=O)C6=O)CC4)nc3cc2C(C)(C)O)n1 (stereo partly shown) [I-473]
18,> 200,Cc1c(C2CCN(C[C@H]3CC[C@H](n4cc5cc(NC(=O)c6cccc(C(F)(F)F)n6)ncc5n4)CC3)CC2)ccc2c1n(C)c(=O)n2C1CCC(=O)NC1=O (stereo partly shown) [I-210]
19,10 to 50,CN(C[C@H]1CC[C@H](n2cc3cc(NC(=O)c4cccc(C(F)(F)F)n4)ccc3n2)CC1)C1CCN(c2ccc3c(N4CCC(=O)NC4=O)cncc3c2)CC1 [I-319]
20,> 200,Cc1nc(C(=O)Nc2cc3cn([C@H]4CC[C@H](CN(C)C5CCN(c6cccc7c6n(C)c(=O)n7C6CCC(=O)N(C)C6=O)CC5)CC4)nc3cc2C(C)(C)O)co1 (stereo partly shown) [I-61]
21,< 10,"COc1cc2nn([C@H]3CC[C@H](CN(C)[C@H]4CC[C@@H](c5cccc6c5n(C)c(=O)n6C5CCC(=O)NC5=O)CC4)CC3)cc2cc1NC(=O)c1cccc(C(F)(F)F)n1 (stereo partly shown) [I-6, N-[2-[4-[[[4-[1-(2,6-dioxo-3-piperidyl)-3-methyl-2-oxo-benzimidazol-4-yl]cyclohexyl]-methyl-amino]methyl]cyclohexyl]-6-methoxy-indazol-5-yl]-6-(trifluoromethyl)pyridine-2-carboxamide]"
22,< 10,C[C@@H]1CN(c2cccc3c(N4CCC(=O)NC4=O)cncc23)CCN1C[C@H]1CC[C@H](n2cc3cc(NC(=O)c4cccc(C(F)(F)F)n4)c(C(C)(C)O)cc3n2)CC1 [I-230]

row,DC50 [nM],SMILES
1,< 10,Cn1c(=O)n(C2CCC(=O)NC2=O)c2c(F)ccc(C3CCN(C[C@H]4CC[C@H](n5cc6cc(NC(=O)c7cccc(C(F)(F)F)n7)c(F)cc6n5)CC4)CC3)c21 (stereo partly shown) [I-25]
2,< 10,COc1cc2nn([C@H]3CC[C@H](CN4CCN(c5ccc6c(N7CCC(=O)NC7=O)cncc6c5)CC4)CC3)cc2cc1NC(=O)c1cccc(C(F)(F)F)n1 [I-208]
3,> 200,COc1cc2nn([C@H]3CC[C@H](CN4CCC(c5cccc6c5n(C)c(=O)n6C5CCC(=O)NC5=O)CC4)CC3)cc2cc1NC(=O)c1cnc(OC)c(Cl)c1 (stereo partly shown) [I-193]
4,> 200,COc1cc2nc([C@H]3CC[C@H](CN(C)CCCNc4cccc5c4C(=O)N(C4CCC(=O)NC4=O)C5=O)CC3)sc2cc1NC(=O)c1cncc(C#N)c1 (stereo partly shown) [I-458]
5,< 10,CN(C[C@H]1CC[C@H](n2cc3cc(NC(=O)c4cccc(C(F)(F)F)n4)c(C#N)cc3n2)CC1)C1CCN(c2cccc3c2n(C)c(=O)n3C2CCC(=O)NC2=O)CC1 (stereo partly shown) [I-239]
6,10 to 50,O=C1CCC(N2C(=O)c3cccc(NCCC4CC5(C4)CN(C[C@H]4CC[C@H](c6nc7cc(C(=O)O)c(NC(=O)c8cccc(C(F)(F)F)n8)cc7s6)CC4)C5)c3C2=O)C(=O)N1 (stereo partly shown) [I-485]
7,10 to 50,CC(C)(O)c1cc2nc([C@H]3CC[C@H](CN4CCO[C@@H](CCCNc5cccc6c5C(=O)N(C5CCC(=O)NC5=O)C6=O)C4)CC3)sc2cc1NC(=O)c1cccc(C#N)n1 (stereo partly shown) [I-438]
8,< 10,Cn1c(=O)n(C2CCC(=O)NC2=O)c2cccc(N3CC4CC(C3)N4C[C@H]3CC[C@H](n4cc5cc(NC(=O)c6cccc(C(F)(F)F)n6)c(C(C)(C)O)cc5n4)CC3)c21 (stereo partly shown) [I-232]
9,10 to 50,COc1cc2nn([C@H]3CC[C@H](CN4CCN(c5ccc6c(N7CCC(=O)NC7=O)cncc6c5OC)CC4)CC3)cc2cc1NC(=O)c1cccc(C(F)(F)F)n1 [I-376]
10,< 10,CC(C)Nc1cc(-c2ccc3cc(C#N)cnn23)ncc1C(=O)N[C@H]1CC[C@H](CN2CCC(c3cccc4c3n(C)c(=O)n4C3CCC(=O)NC3=O)CC2)CC1 (stereo partly shown) [I-183]
11,> 200,Cn1c(=O)n(C2CCC(=O)NC2=O)c2cccc(N3CCN(C[C@H]4CC[C@H](n5cc6cc(NC(=O)c7cncc(C#N)c7)c(OC(F)(F)F)cc6n5)CC4)CC3)c21 (stereo partly shown) [I-160]
12,> 200,COc1cc2nn([C@H]3CC[C@H](CN4CCC(c5cccc6c5n(C)c(=O)n6C5CCC(=O)NC5=O)CC4)CC3)cc2cc1NC(=O)c1cc(Cl)cnn1 (stereo partly shown) [I-135]
13,< 10,Cn1c(=O)n(C2CCC(=O)NC2=O)c2cccc(C3CCN(C[C@H]4CC[C@H](n5cc6cc(NC(=O)c7cccc(C(F)(F)F)n7)c(C#N)cc6n5)CC4)CC3)c21 (stereo partly shown) [I-189]
14,< 10,Cn1c(=O)n(C2CCC(=O)NC2=O)c2cccc(C3CCN(C[C@H]4CC[C@H](n5cc6cc(NC(=O)c7cccc(C(F)(F)F)n7)c(C7CC7)cc6n5)CC4)CC3)c21 (stereo partly shown) [I-69]
15,10 to 50,O=C1CCN(c2cncc3c(C4CCN(C[C@H]5CC[C@H](n6cc7cc(NC(=O)c8cccc(C(F)(F)F)n8)c(Cl)cc7n6)CC5)CC4)cccc23)C(=O)N1 [I-370]
16,10 to 50,COc1cc2nn([C@H]3CC[C@H](CN4CCCN(c5cccc6c5n(C)c(=O)n6C5CCC(=O)NC5=O)CC4)CC3)cc2cc1NC(=O)c1cncc(C#N)c1 (stereo partly shown) [I-367]
17,> 200,CN(CCCO[C@H]1C[C@H](Nc2cccc3c2C(=O)N(C2CCC(=O)NC2=O)C3=O)C1)C[C@H]1CC[C@H](n2cc3cc(NC(=O)c4cccc(C(F)(F)F)n4)ncc3n2)CC1 (stereo partly shown) [I-353]
18,> 200,CC(C)Nc1c(C(=O)N[C@H]2CC[C@H](CN3CCC(c4cccc5c(N6CCC(=O)NC6=O)cncc45)CC3)CC2)cnc2c1Oc1ccc(C#N)cc1O2 [I-310]
19,< 10,COc1cc2nn([C@H]3CC[C@H](CN4CCC5(CC4)CC(Nc4cccc6c4C(=O)N(C4CCC(=O)NC4=O)C6=O)C5)CC3)cc2cc1NC(=O)c1cnn2cccnc12 (stereo partly shown) [I-13]
20,< 10,Cc1cc2nn([C@H]3CC[C@H](CN4CCN(c5cccc6c5n(C)c(=O)n6C5CCC(=O)NC5=O)CC4)CC3)cc2cc1NC(=O)c1cncc(C(F)(F)F)n1 (stereo partly shown) [I-401]
21,10 to 50,Cn1c(=O)n(C2CCC(=O)NC2=O)c2cccc(C3CCN(C[C@H]4C[C@H](n5cc6cc(NC(=O)c7cccc(C(F)(F)F)n7)c(F)cc6n5)C4)CC3)c21 (stereo partly shown) [I-30]
